According to PubChem BioAssay AID2060623 (Molecular Pharmacology Branch, DTP, NCI, 2025):
Several values for one entry are separate records, joined by “and”; a condition that tells them apart may be missing. Equal entries are not always repeated.

Test system: 227483-062-R1-J1-PDC complex spheroids with HUVEC/MSC, viability
Experiment: Anticancer human tumor 227483-062-R1-J1-PDC patient-derived pancreatic carcinoma cell line growth inhibition [CLK]
Conditions: for viability, T/C: stronger effect = lower value
Method in brief: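 Multi-cell-type spheroids combined patient-derived tumor cells with HUVEC endothelial cells and human mesenchymal stem cells. Paired agents were dosed in half-log steps down from about clinical Cmax, or from 10 microM where Cmax was unknown.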

[1] = curve of first compound, second compound 0.0316 µM
[2] = curve of first compound, second compound 0.1 µM
[3] = curve of first compound, second compound 0.316 µM
[4] = curve of first compound, second compound 1 µM
[5] = curve of first compound, second compound 3.16 µM
[6] = curve of first compound, second compound 10 µM
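Also: spheroids exposed to compounds for seven days before readout.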
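For viability, T/C in this document: percent of DMSO vehicle control luminescence as 100% viability.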

CCCS(=O)(=O)Nc1ccc(F)c(C(=O)c2c[nH]c3ncc(-c4ccc(Cl)cc4)cc23)c1F
viability, T/C (compound 0.0316 µM): 101% and 92.4%
viability, T/C (compound 0.1 µM): 128% and 96.7%
viability, T/C (compound 0.316 µM): 106% and 92.3%
viability, T/C (compound 1 µM): 125% and 99%
viability, T/C (compound 3.16 µM): 129% and 98.8%
viability, T/C (compound 10 µM): 107% and 80.7%
IC50 (curve of compound): > 10 µM

COc1c(OCCCN2CCOCC2)ccc2c3n(c(=NC(=O)c4cnc(N)nc4)nc12)CCN3 + CNC(=O)c1ccc(Nc2nc(OC3CCCC3)c3c(-c4ccc5nc(C)oc5c4)c[nH]c3n2)c(OC)c1
IC50 [1]: > 1 µM
IC50 [2]: 0.0807 µM
IC50 [3]: 0.0612 µM
IC50 [4]: 0.0106 µM
IC50 [5]: 0.00426 µM
IC50 [6]: < 0.00316 µM
viability, T/C (second compound 0.0316 µM, first compound 0.00316 µM): 94.9%
viability, T/C (second compound 0.0316 µM, first compound 0.01 µM): 93.6%
viability, T/C (second compound 0.0316 µM, first compound 0.0316 µM): 79.5%
viability, T/C (second compound 0.0316 µM, first compound 0.1 µM): 69%
viability, T/C (second compound 0.0316 µM, first compound 0.316 µM): 70%
viability, T/C (second compound 0.0316 µM, first compound 1 µM): 51.2%
viability, T/C (second compound 0.1 µM, first compound 0.00316 µM): 96%
viability, T/C (second compound 0.1 µM, first compound 0.01 µM): 89.5%
viability, T/C (second compound 0.1 µM, first compound 0.0316 µM): 56.2%
viability, T/C (second compound 0.1 µM, first compound 0.1 µM): 58.7%
viability, T/C (second compound 0.1 µM, first compound 0.316 µM): 44.1%
viability, T/C (second compound 0.1 µM, first compound 1 µM): 41%
viability, T/C (second compound 0.316 µM, first compound 0.00316 µM): 87.4%
viability, T/C (second compound 0.316 µM, first compound 0.01 µM): 55.1%
viability, T/C (second compound 0.316 µM, first compound 0.0316 µM): 59.8%
viability, T/C (second compound 0.316 µM, first compound 0.1 µM): 52.2%
viability, T/C (second compound 0.316 µM, first compound 0.316 µM): 37.9%
viability, T/C (second compound 0.316 µM, first compound 1 µM): 32.2%
viability, T/C (second compound 1 µM, first compound 0.00316 µM): 55.9%
viability, T/C (second compound 1 µM, first compound 0.01 µM): 56.7%
viability, T/C (second compound 1 µM, first compound 0.0316 µM): 39.9%
viability, T/C (second compound 1 µM, first compound 0.1 µM): 32.2%
viability, T/C (second compound 1 µM, first compound 0.316 µM): 26.3%
viability, T/C (second compound 1 µM, first compound 1 µM): 20.6%
viability, T/C (second compound 3.16 µM, first compound 0.00316 µM): 50.3%
viability, T/C (second compound 3.16 µM, first compound 0.01 µM): 48.3%
viability, T/C (second compound 3.16 µM, first compound 0.0316 µM): 34.9%
viability, T/C (second compound 3.16 µM, first compound 0.1 µM): 22.3%
viability, T/C (second compound 3.16 µM, first compound 0.316 µM): 18.4%
viability, T/C (second compound 3.16 µM, first compound 1 µM): 14.8%
viability, T/C (second compound 10 µM, first compound 0.00316 µM): 43.1%
viability, T/C (second compound 10 µM, first compound 0.01 µM): 36.9%
viability, T/C (second compound 10 µM, first compound 0.0316 µM): 30.3%
viability, T/C (second compound 10 µM, first compound 0.1 µM): 21.2%
viability, T/C (second compound 10 µM, first compound 0.316 µM): 18%
viability, T/C (second compound 10 µM, first compound 1 µM): 16.3%

C=CC(=O)Nc1cc(Nc2nccc(-c3cn(C)c4ccccc34)n2)c(OC)cc1N(C)CCN(C)C + CN1CCN(c2cc(C(=O)Nc3cc4cc(-c5cnn(C)c5)ccc4cn3)ccn2)CC1
IC50 [1]: > 0.3 µM
IC50 [2]: > 0.3 µM
IC50 [3]: < 0.000949 µM
IC50 [4]: < 0.000949 µM
IC50 [5]: < 0.000949 µM
IC50 [6]: < 0.000949 µM
viability, T/C (second compound 0.0316 µM, first compound 0.000949 µM): 101%
viability, T/C (second compound 0.0316 µM, first compound 0.003 µM): 104%
viability, T/C (second compound 0.0316 µM, first compound 0.00949 µM): 117%
viability, T/C (second compound 0.0316 µM, first compound 0.03 µM): 99.1%
viability, T/C (second compound 0.0316 µM, first compound 0.0949 µM): 87.5%
viability, T/C (second compound 0.0316 µM, first compound 0.3 µM): 79.2%
viability, T/C (second compound 0.1 µM, first compound 0.000949 µM): 71.5%
viability, T/C (second compound 0.1 µM, first compound 0.003 µM): 64.6%
viability, T/C (second compound 0.1 µM, first compound 0.00949 µM): 61.5%
viability, T/C (second compound 0.1 µM, first compound 0.03 µM): 77%
viability, T/C (second compound 0.1 µM, first compound 0.0949 µM): 68%
viability, T/C (second compound 0.1 µM, first compound 0.3 µM): 56%
viability, T/C (second compound 0.316 µM, first compound 0.000949 µM): 4.77%
viability, T/C (second compound 0.316 µM, first compound 0.003 µM): 5.57%
viability, T/C (second compound 0.316 µM, first compound 0.00949 µM): 5.48%
viability, T/C (second compound 0.316 µM, first compound 0.03 µM): 5.73%
viability, T/C (second compound 0.316 µM, first compound 0.0949 µM): 8.02%
viability, T/C (second compound 0.316 µM, first compound 0.3 µM): 4.25%
viability, T/C (second compound 1 µM, first compound 0.000949 µM): 3.69%
viability, T/C (second compound 1 µM, first compound 0.003 µM): 1.6%
viability, T/C (second compound 1 µM, first compound 0.00949 µM): 2.26%
viability, T/C (second compound 1 µM, first compound 0.03 µM): 4.39%
viability, T/C (second compound 1 µM, first compound 0.0949 µM): 2.66%
viability, T/C (second compound 1 µM, first compound 0.3 µM): 1.57%
viability, T/C (second compound 3.16 µM, first compound 0.000949 µM): 3.65%
viability, T/C (second compound 3.16 µM, first compound 0.003 µM): 4.21%
viability, T/C (second compound 3.16 µM, first compound 0.00949 µM): 3%
viability, T/C (second compound 3.16 µM, first compound 0.03 µM): 7.42%
viability, T/C (second compound 3.16 µM, first compound 0.0949 µM): 2.8%
viability, T/C (second compound 3.16 µM, first compound 0.3 µM): 5.59%
viability, T/C (second compound 10 µM, first compound 0.000949 µM): 3.23%
viability, T/C (second compound 10 µM, first compound 0.003 µM): 6.58%
viability, T/C (second compound 10 µM, first compound 0.00949 µM): 2.57%
viability, T/C (second compound 10 µM, first compound 0.03 µM): 4.96%
viability, T/C (second compound 10 µM, first compound 0.0949 µM): 2.09%
viability, T/C (second compound 10 µM, first compound 0.3 µM): 1.83%
